Values after ≈ are worked out from the molar mass of the structure shown.
Tests used:
[1] = Solubility study of HSP (shake flask); assay type: physicochemical; conditions: for Hesperidin Solubility: shaken 24 h, room temperature
Description: The solubility of HSP was determined by adopting the standard shake flask technique according to the method described by Majumdar and colleagues. The screening of the solution was performed by evaluating the solubility of HSP (10% (w/v) with respect to pH solution. To perform this experiment, 10% w/v of HSP was added to a glass vial containing 5 mL of the chosen solvent and tightly sealed. To ensure homogeneous mixing, the samples were shaken continuously for 24 h in a water bath at room temperature and 50 rpm. After 24 h, samples were centrifuged at 4500 rpm and HSP was assayed in the supernatant. Solubility was determined in water and in buffers with pH values ranging from 1.2 to 6.8. In addition, the effect of XA-stabilized AuNPs on the solubility of hesperidin was examined to determine by how much the solubility was increased.

[2] = test system: Proteus vulgaris (MTCC 7299); assay: Minimum inhibitory concentration (microtiter plate dilution); assay type: cell-based; conditions: P. vulgaris MTCC 7299, 37 °C, 24 h, absorbance 640 nm; method: concentration that inhibited 50% of bacterial growth
Description: Briefly, stock solutions of XA@AuNPs gel and HSP@XA@AuNPs gel were prepared in water to ensure complete solubilization at a concentration of 1 mg/mL. A total of 100 µL of nutrient broth and Sabouraud dextrose broth was added to wells 1 to 10. XA@AuNPs gel and HSP@XA@AuNPs gel samples (100 µL) were added to the first well. The solution was serially diluted from well 1 to well 10, while 100 µL from well 10 was discarded. Then 100 µL of the bacterial suspension was added to all dilution wells from well 1 to well 10. The overnight bacterial suspension (100 µL) was added to well 11, and 100 µL of sterile broth was added to serve as a positive control or growth control, while 200 µL of sterile nutrient broth and Sabouraud dextrose broth in well 12 served as a negative control or sterility control. The plate was incubated at 37 °C for 24 h. After incubation, absorbance in each well was measured using an ELISA reader (Erba) at a wavelength of 640 nm. The procedure described above was performed for each microbial strain. The concentration of the sample and standard that inhibited 50% of bacterial growth was determined for all microorganisms. All tests were performed in triplicate to minimize error.

SMILES: COc1ccc([C@@H]2CC(=O)c3c(O)cc(O[C@@H]4O[C@H](CO[C@@H]5O[C@@H](C)[C@H](O)[C@@H](O)[C@H]5O)[C@@H](O)[C@H](O)[C@H]4O)cc3O2)cc1O [HSP, hesperidin]
- Hesperidin Solubility ([1]; Water): 4.09 ± 0.20 µg/mL
- Hesperidin Solubility ([1]; XA-stabilized AuNPs as solvent): 62.23 ± 3.1 µg/mL
- Solubility increase by addition of XA-stabilized AuNPs compared to water ([1]; XA-stabilized AuNPs vs water): 15 fold
- Hesperidin Solubility ([1]; pH 1.2 buffer): 2.44 ± 0.12 µg/mL
- Hesperidin Solubility ([1]; pH 5.0 buffer): 3.42 ± 0.17 µg/mL
- Hesperidin Solubility ([1]; pH 6.8 buffer): 6.19 ± 0.30 µg/mL
- MIC [2]: 9.2 µg/mL (≈ 15.1 µM)

From PMC9601670, “Solubility Enhancement, Formulation Development, and Antibacterial Activity of Xanthan-Gum-Stabilized Colloidal Gold Nanogel of Hesperidin against Proteus vulgaris” (Gels, 2022)
